# The supplement of paper PMC10307832
# Legend:
# Experiment in all cases: relative viability (nuclei count vs DMSO), 5 days (fraction); higher = more cells survive
# Doxorubicin + Lapatinib = compound: COc1cccc2c1C(=O)c1c(O)c3c(c(O)c1C2=O)C[C@@](O)(C(=O)CO)C[C@@H]3O[C@H]1C[C@H](N)[C@H](O)[C@H](C)O1 [Doxorubicin] + CS(=O)(=O)CCNCc1ccc(-c2ccc3ncnc(Nc4ccc(OCc5cccc(F)c5)c(Cl)c4)c3c2)o1 [Lapatinib] (partner 2 µM)
# In short: (§1)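 Lung cancer cell lines in 1536-well plates got either a single drug or a fixed anchor-drug dose together with five library-drug doses (not always all listed) in √10 steps, by pin tool, on the day after seeding. Nuclei were counted after 5 days, and relative viability is the treated-to-vehicle ratio of nuclei counts. Values are medians of duplicate plates.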
# BAY61-3606 + Pemetrexed = compound: COC1=C(C=C(C=C1)C2=CC3=NC=CN3C(=N2)NC4=C(C=CC=N4)C(=O)N)OC [BAY61-3606] + Nc1nc2[nH]cc(CCc3ccc(C(=O)N[C@@H](CCC(=O)O)C(=O)O)cc3)c2c(=O)[nH]1 [Pemetrexed] (partner 0.2 µM)
# In short: as §1
# BAY61-3606 + Linsitinib = compound: COC1=C(C=C(C=C1)C2=CC3=NC=CN3C(=N2)NC4=C(C=CC=N4)C(=O)N)OC [BAY61-3606] + C[C@]1(O)C[C@@H](c2nc(-c3ccc4ccc(-c5ccccc5)nc4c3)c3c(N)nccn32)C1 [Linsitinib] (partner 1 µM)
# In short: as §1
# BAY61-3606 + Dasatinib = compound: COC1=C(C=C(C=C1)C2=CC3=NC=CN3C(=N2)NC4=C(C=CC=N4)C(=O)N)OC [BAY61-3606] + Cc1nc(Nc2ncc(C(=O)Nc3c(C)cccc3Cl)s2)cc(N2CCN(CCO)CC2)n1 [Dasatinib] (partner 0.075 µM)
# In short: as §1
Cell Line,relative viability (Doxorubicin + Lapatinib; first compound 0.001 µM),relative viability (Doxorubicin + Lapatinib; first compound 0.003162 µM),relative viability (Doxorubicin + Lapatinib; first compound 0.01 µM),relative viability (Doxorubicin + Lapatinib; first compound 0.03162 µM),relative viability (Doxorubicin + Lapatinib; first compound 0.1 µM),relative viability (BAY61-3606 + Pemetrexed; first compound 0.02 µM),relative viability (BAY61-3606 + Pemetrexed; first compound 0.06325 µM),relative viability (BAY61-3606 + Pemetrexed; first compound 0.2 µM),relative viability (BAY61-3606 + Pemetrexed; first compound 0.6325 µM),relative viability (BAY61-3606 + Pemetrexed; first compound 2 µM),relative viability (BAY61-3606 + Linsitinib; first compound 0.02 µM),relative viability (BAY61-3606 + Linsitinib; first compound 0.06325 µM),relative viability (BAY61-3606 + Linsitinib; first compound 0.2 µM),relative viability (BAY61-3606 + Linsitinib; first compound 0.6325 µM),relative viability (BAY61-3606 + Linsitinib; first compound 2 µM),relative viability (BAY61-3606 + Dasatinib; first compound 0.02 µM),relative viability (BAY61-3606 + Dasatinib; first compound 0.06325 µM),relative viability (BAY61-3606 + Dasatinib; first compound 0.2 µM),relative viability (BAY61-3606 + Dasatinib; first compound 0.6325 µM),relative viability (BAY61-3606 + Dasatinib; first compound 2 µM)
NCI-H1975,0.887,0.902,0.719,0.253,0.202,0.288,0.289,0.308,0.269,0.247,1.1,0.813,0.891,0.837,0.615,0.378,0.31,0.367,0.282,0.253
NCI-H322M,0.636,0.563,0.547,0.521,0.569,0.598,0.627,0.634,0.637,0.538,1.05,0.946,0.911,0.925,0.878,0.247,0.232,0.256,0.233,0.224
NCI-H520,0.881,0.965,0.753,0.48,0.248,0.75,0.782,0.768,0.684,0.467,1.14,1.04,1.08,1.16,0.94,0.191,0.193,0.216,0.184,0.151
NCI-H358,0.503,0.441,0.334,0.195,0.207,0.196,0.184,0.226,0.163,0.153,0.769,0.64,0.699,0.673,0.299,0.17,0.158,0.149,0.179,0.138
NCI-H1395,0.921,0.986,0.949,0.803,0.607,1.04,0.659,0.72,0.899,0.73,1.39,0.989,1.1,1.1,0.888,0.385,0.404,0.387,0.383,0.399
LC-2-ad,0.838,0.958,0.935,0.697,0.255,0.289,0.267,0.261,0.289,0.267,0.971,0.922,0.897,0.827,0.562,0.569,0.496,0.753,0.622,0.27
SK-MES-1,0.423,0.444,0.489,0.396,0.409,1.03,0.909,0.869,0.88,0.713,1,1.13,1.09,1.09,0.989,0.379,0.302,0.357,0.339,0.23
SW 1573,0.978,1.21,1.15,0.75,0.559,0.924,0.833,0.804,0.916,0.53,0.821,0.762,0.803,0.674,0.625,0.535,0.416,0.43,0.373,0.203
CAL-12T,0.597,0.656,0.517,0.67,0.404,1.29,1.38,1.22,1.22,0.742,0.903,0.755,0.818,0.85,0.388,0.495,0.383,0.404,0.479,0.131
